According to publication PMC12313567 (Frontiers in Cellular and Infection Microbiology, 2025):

Tests used:
E. faecalis = test: Antimicrobial test, broth microdilution MIC; assay type: cell-based, Enterococcus faecalis (ATCC 29212); details: Enterococcus faecalis, 24 hours, read-out: Minimum inhibitory concentration, E. faecalis
Protocol: (§1) This study used standard strains of bacteria known to be resistant to antibiotics. These isolates were identified as three gram-positive bacteria: Bacillus subtilis, Staphylococcus aureus (ATCC 29213) and Enterococcus faecalis (ATCC 29212); and two Gram-negative bacteria: Escherichia coli (ATCC 25922) and Pseudomonas aeruginosa (ATCC 27853). The strains were grown in blood medium one night before the broth microdilution method was used. They were then passaged and stored in tryptic soy broth (TSB) at -20°C for repeat experiments. Bacterial strains were passaged in blood medium and incubated in an oven at 35 ± 2°C for 18–24 hours. At least 3–5 similar colonies were selected from the culture plate. These were picked up with a loop and transferred to 4–5 mL of liquid medium (e.g. tryptic soy broth). The broth was incubated at 35°C until the turbidity reached McFarland 0.5 (approximately 2–6 hours). The density of the culture in the broth was determined by preparing a bacterial solution with a McFarland density of 0.5. The microdilution method was used to determine MIC values. Standards were dissolved in DMSO. Positive controls were prepared with penicillin, fluconazole and gentamicin.
(§2) It was prepared at concentrations of 1, 2, 4, 8, 16, 32, 64, 128, 256 and 512 µg/mL. 1% DMSO was used as a solvent control. Compounds were spiked at initial test control concentrations of 250 µg/mL in MHB. MHB was added to all wells except the first well. 100 µl of compounds were added to the first well. Serial dilutions were then made and diluted to the minimum concentration (1 µg/ml). Then 0.5 McFarland was prepared from bacteria incubated in MHB for 1 night. Then 50 µl of bacterial suspension was added to each well. The plates were incubated at 37°C for 24 hours. The microplates were then read in the spectrophotometer at a wavelength of 620 nm.
(§3) 100 µl of MHB was added to each well of a 12-well U-bottom microplate. 100 μL of the previously prepared NHC precursor drug was taken and transferred to the first well, and 100 μL was taken again by pipetting and transferred to the second well. In this way, dilutions were made sequentially up to the 11th well. No NHC precursor was added to the 12th well, which was used as a positive control. Then 100 μL of the prepared 5 x 10^5 CFU/mL bacterial suspension was taken and added to all wells without adding to the 11th well. The 11th well was used as a negative control ([Demirhan et al., 2024]). The same study was performed for all NHC precursors. The microplates were then incubated at 35°C for 24 hours. The lowest concentration at which no growth occurred for all strains was determined as the MIC.

S. aureus = test: Antimicrobial test, broth microdilution MIC; assay type: cell-based, Staphylococcus aureus (ATCC 29213); details: Staphylococcus aureus, 24 h, read-out: Minimum inhibitory concentration, S. aureus
Protocol: as §1, §2, §3

E. coli = test: Antimicrobial test, broth microdilution MIC; assay type: cell-based, Escherichia coli (ATCC 25922); details: Escherichia coli, 24 hours, read-out: Minimum inhibitory concentration, E. coli
Protocol: as §1, §2, §3

AChE = AChE (Homo sapiens, UniProt P22303); test: biochemical; details: for Ki: Lineweaver-Burk curves; for Ki / IC50: means of triplicate assays ± SEM; for AChE inhibition type: from Lineweaver-Burk curves; for IC50: 30°C
Protocol: Reaction mixtures contained the 50 μL of 5,5′-dithio-bis(2-nitro-benzoic)acid compound (DTNB) and 100 μL of Tris–HCl solution (1 M, pH 8.0), and 20 μL AChE solution in total volume of 1 mL. The mixture was then incubated and mixed for 15 min at 30°C. Next, The reaction was started by adding 50 μL of acetylthiocholine iodide, and carried out for 5 min at 30°C. After adding substrate, the change in absorbance at 0 and 5 minutes was recorded at 412 nm.
AChE activities were determined at 30°C by using five concentrations of acetylthiocholine iodide and three concentrations of compounds.

P. aeruginosa = test: Antimicrobial test, broth microdilution MIC; assay type: cell-based, Pseudomonas aeruginosa (ATCC 27853); details: Pseudomonas aeruginosa, 24 hours, read-out: Minimum inhibitory concentration, P. aeruginosa
Protocol: as §1, §2, §3

AChE, sequence (P22303 32-614): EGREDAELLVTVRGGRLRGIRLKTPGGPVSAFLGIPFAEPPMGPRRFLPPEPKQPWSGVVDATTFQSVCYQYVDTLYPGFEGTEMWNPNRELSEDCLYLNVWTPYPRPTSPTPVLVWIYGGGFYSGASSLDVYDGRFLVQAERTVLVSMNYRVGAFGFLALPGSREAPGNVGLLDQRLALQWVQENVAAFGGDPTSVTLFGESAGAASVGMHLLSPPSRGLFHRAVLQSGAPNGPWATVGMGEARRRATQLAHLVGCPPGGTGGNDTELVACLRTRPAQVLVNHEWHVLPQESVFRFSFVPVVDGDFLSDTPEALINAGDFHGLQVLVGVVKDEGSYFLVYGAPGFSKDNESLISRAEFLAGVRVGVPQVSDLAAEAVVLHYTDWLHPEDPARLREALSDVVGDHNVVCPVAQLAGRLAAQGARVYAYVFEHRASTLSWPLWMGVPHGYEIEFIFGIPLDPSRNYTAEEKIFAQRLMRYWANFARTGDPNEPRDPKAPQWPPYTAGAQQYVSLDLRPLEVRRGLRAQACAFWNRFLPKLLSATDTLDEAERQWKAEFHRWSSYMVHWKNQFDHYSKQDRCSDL

## CC(=O)c1ccc(-n2cc[n+](CCN3CCOCC3)c2)cc1.Cl.[Cl-] [Compound 1a, 1-(4-acetylphenyl)-3-(2-morpholino)ethylimidazolium chloride hydrochloride]
E. faecalis
  MIC: 50 µg/mL
S. aureus
  MIC: 25 µg/mL
E. coli
  MIC: 200 µg/mL
AChE
  Ki: 11.2 ± 1.05 µM
  AChE inhibition type: Uncompetitive
  IC50: 14.8 ± 0.82 µM
P. aeruginosa
  MIC: 200 µg/mL

## CC(=O)c1ccc(-n2cc[n+](CCN3CCCCC3)c2)cc1.Cl.[Cl-] [Compound 1b, 1-(4-acetylphenyl)-3-(2-piperidino)ethylimidazolium chloride hydrochloride]
E. faecalis
  MIC: 50 µg/mL
S. aureus
  MIC: 12.5 µg/mL
E. coli
  MIC: 200 µg/mL
AChE
  Ki: 1.69 ± 0.08 µM
  AChE inhibition type: Uncompetitive
  IC50: 2.21 ± 0.16 µM
P. aeruginosa
  MIC: 200 µg/mL

## CC(=O)c1ccc(-n2cc[n+](CCN3CCCC3)c2)cc1.Cl.[Cl-] [Compound 1c, 1-(4-acetylphenyl)-3-(2-pyrrolidino)ethylimidazolium chloride hydrochloride]
E. faecalis
  MIC: 50 µg/mL
S. aureus
  MIC: 25 µg/mL
E. coli
  MIC: 50 µg/mL
AChE
  Ki: 8.05 ± 0.72 µM
  AChE inhibition type: Uncompetitive
  IC50: 10.5 ± 1.08 µM
P. aeruginosa
  MIC: 25 µg/mL

## Br.CC(=O)c1ccc(-n2cc[n+](Cc3ccccn3)c2)cc1.[Br-] [Compound 1d, 1-(4-acetylphenyl)-3-(pyridin-2-yl)methylimidazolium bromide hydrobromide]
E. faecalis
  MIC: 10 µg/mL
S. aureus
  MIC: 50 µg/mL
E. coli
  MIC: 50 µg/mL
AChE
  Ki: 0.8 ± 0.06 µM
  AChE inhibition type: Uncompetitive
  IC50: 1.05 ± 0.07 µM
P. aeruginosa
  MIC: 200 µg/mL

## Cl.O=Cc1ccc(-n2cc[n+](CCN3CCOCC3)c2)cc1.[Cl-] [Compound 2a, 1-(4-formylphenyl)-3-(2-morpholino)ethylimidazolium chloride hydrochloride]
E. faecalis
  MIC: 250 µg/mL
S. aureus
  MIC: 250 µg/mL
E. coli
  MIC: 200 µg/mL
AChE
  Ki: 0.66 ± 0.03 µM
  AChE inhibition type: Uncompetitive
  IC50: 0.87 ± 0.06 µM
P. aeruginosa
  MIC: 200 µg/mL

## Cl.O=Cc1ccc(-n2cc[n+](CCN3CCCCC3)c2)cc1.[Cl-] [Compound 2b, 1-(4-formylphenyl)-3-(2-piperidino)ethylimidazolium chloride hydrochloride]
E. faecalis
  MIC: 50 µg/mL
S. aureus
  MIC: 250 µg/mL
E. coli
  MIC: 100 µg/mL
AChE
  Ki: 0.78 ± 0.05 µM
  AChE inhibition type: Uncompetitive
  IC50: 1.02 ± 0.08 µM
P. aeruginosa
  MIC: 200 µg/mL

## Cl.O=Cc1ccc(-n2cc[n+](CCN3CCCC3)c2)cc1.[Cl-] [Compound 2c, 1-(4-formylphenyl)-3-(2-pyrrolidino)ethylimidazolium chloride hydrochloride]
E. faecalis
  MIC: 50 µg/mL
S. aureus
  MIC: 100 µg/mL
E. coli
  MIC: 200 µg/mL
AChE
  Ki: 3.16 ± 0.24 µM
  AChE inhibition type: Uncompetitive
  IC50: 4.13 ± 0.25 µM
P. aeruginosa
  MIC: 200 µg/mL

## Br.O=Cc1ccc(-n2cc[n+](Cc3ccccn3)c2)cc1.[Br-] [Compound 2d, 1-(4-formylphenyl)-3-(pyridin-2-yl)methylimidazolium bromide hydrobromide]
E. faecalis
  MIC: 100 µg/mL
S. aureus
  MIC: 250 µg/mL
E. coli
  MIC: 200 µg/mL
AChE
  Ki: 0.63 ± 0.04 µM
  AChE inhibition type: Uncompetitive
  IC50: 0.82 ± 0.06 µM
P. aeruginosa
  MIC: 200 µg/mL
